Laboratory results from patent publication US20110294663A1, “Herbicidal composition for tolerant or resistant corn crops” (priority 2010, published 2011).

Tested on: corn (GA-tolerant)
Test: Greenhouse trial: crop plant compatibility
Format: in vivo
Conditions: Table 4; post-emergence, 1-2-leaf stage, scoring 14 days after treatment; g of ai/ha: A1.1 100; B1.1 2.5 alone, 5 in combinations; C1 2.5; C2 1.25; C10 250; C4 50; C5 1; C6 2
Description: (§1) The trials were carried out under greenhouse conditions (test pots, diameter 8 cm, spray application using 300 l of water/hectare, 2 repetitions, 6 to 8 plants per pot).
(§2) Scoring was by visual comparison of the treated with the untreated control pots (0-100% scale, 14 d after the application).

`CP(=O)(O)CCC(N)C(=O)O` (centres unmarked) [(A1.1) GA, glufosinate-ammonium] was tested. Which “Damage to crop plants (%) corn (GA-tolerant) (≦15-20% acceptable)” value (“Damage to crop plants (%) corn” below) did it give?
The value was 0%.

`N#Cc1cc(Br)c(O)c(Br)c1` [(C4) bromoxynil, bromoxynil] was tested. Which “Damage to crop plants (%) corn” value did it give?
Its value is 0%.

Which “Damage to crop plants (%) corn” value does the source give for `C#CCN1C(=O)COc2cc(F)c(N3C(=O)C4=C(CCCC4)C3=O)cc21` [(C5) flumioxazin, flumioxazin] here?
Its value is 15%.

`CCNc1nc(Cl)nc(NC(C)C)n1` [(C10) atrazin, atrazine] was tested. Which “Damage to crop plants (%) corn” value did it give?
Its value is 0%.

Same assay, conditions: Table 5; post-emergence, 1-3-leaf stage, scoring 14 days after treatment; g of ai/ha: A1.1 100; B1.1 5; C7 15; C13 2.5; C9 12.5 alone, 2.5 in combination

Which “Damage to crop plants (%) corn” value does the source give for `CP(=O)(O)CCC(N)C(=O)O` (centres unmarked) [(A1.1) GA, glufosinate-ammonium] here?
The value was 0%.

How did the “Damage to crop plants (%) corn” value turn out when `CS(=O)(=O)c1ccc(C(=O)C2C(=O)CCCC2=O)c([N+](=O)[O-])c1` [(C7) mesotrione, mesotrione] was run?
The value was 0%.

Which “Damage to crop plants (%) corn” value does the source give for `Cc1c(C(=O)c2cnn(C)c2O)ccc(S(C)(=O)=O)c1C1=NOCC1` [(C13) topramezone, topramezone] here?
Its value is 0%.

Same assay, conditions: Table 6; post-emergence, 1-3-leaf stage, scoring 14 days after treatment; g of ai/ha: A1.1 100; B1.1 5; C3 5; C11 25

With `CP(=O)(O)CCC(N)C(=O)O` (centres unmarked) [(A1.1) GA, glufosinate-ammonium] as the molecule, how does the “Damage to crop plants (%) corn” value read?
Its value is 0%.

Same assay, conditions: Table 7; post-emergence, 1-leaf stage, scoring 14 days after treatment; g of ai/ha: A1.1 100; B1.1 5; C12 50

Which “Damage to crop plants (%) corn” value does the source give for `CP(=O)(O)CCC(N)C(=O)O` (centres unmarked) [(A1.1) GA, glufosinate-ammonium] here?
The value was 0%.

Same assay, conditions: Table 8; post-emergence, 1-2-leaf stage, scoring 14 days after treatment; g of ai/ha: A1.1 100; B1.1 5; C8 0.5; isoxadifen 100; cyprosulfamide 100; C′ = isoxadifen in r19, cyprosulfamide in r23

`CP(=O)(O)CCC(N)C(=O)O` (centres unmarked) [(A1.1) GA, glufosinate-ammonium] was tested. Which “Damage to crop plants (%) corn” value did it give?
Its value is 0%.

For `COC(=O)c1csc(C)c1S(=O)(=O)NC(=O)n1nc(OC)n(C)c1=O` [(C8) thiencarbazone-me, thiencarbazone-methyl], which “Damage to crop plants (%) corn” value is on record?
The value was 0%.

Which “Damage to crop plants (%) corn” value does the source give for `O=C(O)C1=NOC(c2ccccc2)(c2ccccc2)C1` [(C14) isoxadifen, isoxadifen] here?
Its value is 0%.

For `COc1ccccc1C(=O)NS(=O)(=O)c1ccc(C(=O)NC2CC2)cc1` [(C15) cyprosulfamide, cyprosulfamide], which “Damage to crop plants (%) corn” value is on record?
The value was 0%.

Same assay, conditions: in vivo

Which “Damage to crop plants (%) corn” value does the source give for `COC(=O)c1nc(-c2ccc(Cl)c(OC)c2F)cc(N)c1Cl` [(B1.1), methyl 4-amino-3-chloro-6-(4-chloro-2-fluoro-3-methoxyphenyl)pyridine-2-carboxylate] here?
Its value is 0%.

How did the “Damage to crop plants (%) corn” value turn out when `CS(=O)(=O)c1cc(C(F)(F)F)ccc1C(=O)c1cnoc1C1CC1` [(C3) isoxaflutole, isoxaflutole] was run?
Its value is 15%.

`CC(C)N(C(=O)COc1nnc(C(F)(F)F)s1)c1ccc(F)cc1` [(C11) flufenacet, flufenacet] was tested. Which “Damage to crop plants (%) corn” value did it give?
Its value is 0%.

With `CCOCN(C(=O)CCl)c1c(C)cccc1CC` [(C12) acetochlor, acetochlor] as the molecule, how does the “Damage to crop plants (%) corn” value read?
Its value is 0%.

Tested on: Eleusine indica
Test: Greenhouse trial: herbicidal efficacy, Eleusine indica
Format: in vivo
Conditions: Table 8; post-emergence, 1-2-leaf stage, scoring 14 days after treatment; g of ai/ha: A1.1 100; B1.1 5; C8 0.5; isoxadifen 100; cyprosulfamide 100; C′ = isoxadifen in r19, cyprosulfamide in r23
Description: as §1
(§3) Application was by post-emergence treatment; the species of the harmful plants and their stage of growth at the time of treatment are indicated in the individual results tables. The application rates of the herbicidally active compounds used on their own or in combinations are likewise listed in the individual results tables.
as §2
(§4) 4.2 Abbreviations used in Tables 4 to 8 application rate g/ai=application rate in grams of active compound per hectare • ai=active ingredient (of an active compound content of 100%) • GA=glufosinate-ammonium • GA-tolerant=corn which is tolerant to GA (GMO: LL corn) • E^C=expected value according to Colby, (E^C=A+B−A×B/100)= • =for ternary combinations: (A+B)+C−(A+B)×C/100 • Δ=difference (%) between observed value -%- vs. expected value (%) (observed value minus expected value) • examination: —observed values for (A), (B) and (A)+(B) in % • scoring: —observed value (%) greater>than E^C/E^A: ->synergism (+A) • —observed value (%) equal to =E^C/E^A->additive effect (+−Δ) • —observed value (%) smaller<than E^A/E^C->antagonism (−Δ)

With `COC(=O)c1csc(C)c1S(=O)(=O)NC(=O)n1nc(OC)n(C)c1=O` [(C8) thiencarbazone-me, thiencarbazone-methyl] as the molecule, how does the “Herbicidal efficacy % Eleusine indica” value read?
Its value is 10%.

How did the “Herbicidal efficacy % Eleusine indica” value turn out when `O=C(O)C1=NOC(c2ccccc2)(c2ccccc2)C1` [(C14) isoxadifen, isoxadifen] was run?
Its value is 0%.

For `COc1ccccc1C(=O)NS(=O)(=O)c1ccc(C(=O)NC2CC2)cc1` [(C15) cyprosulfamide, cyprosulfamide], which “Herbicidal efficacy % Eleusine indica” value is on record?
Its value is 0%.

Tested on: Setaria viridis
Test: Greenhouse trial: herbicidal efficacy, Setaria viridis
Format: in vivo
Conditions: Table 6; post-emergence, 1-3-leaf stage, scoring 14 days after treatment; g of ai/ha: A1.1 100; B1.1 5; C3 5; C11 25
Description: as §1, §3, §2, §4

With `CP(=O)(O)CCC(N)C(=O)O` (centres unmarked) [(A1.1) GA, glufosinate-ammonium] as the molecule, how does the “Herbicidal efficacy % Setaria viridis” value read?
Its value is 5%.

For `COC(=O)c1nc(-c2ccc(Cl)c(OC)c2F)cc(N)c1Cl` [(B1.1), methyl 4-amino-3-chloro-6-(4-chloro-2-fluoro-3-methoxyphenyl)pyridine-2-carboxylate], which “Herbicidal efficacy % Setaria viridis” value is on record?
The value was 90%.

How did the “Herbicidal efficacy % Setaria viridis” value turn out when `CS(=O)(=O)c1cc(C(F)(F)F)ccc1C(=O)c1cnoc1C1CC1` [(C3) isoxaflutole, isoxaflutole] was run?
Its value is 0%.

Which “Herbicidal efficacy % Setaria viridis” value does the source give for `CC(C)N(C(=O)COc1nnc(C(F)(F)F)s1)c1ccc(F)cc1` [(C11) flufenacet, flufenacet] here?
Its value is 0%.

Tested on: Pharbitis purpureum
Test: Greenhouse trial: herbicidal efficacy, Pharbitis purpureum
Format: in vivo
Conditions: Table 7; post-emergence, 1-leaf stage, scoring 14 days after treatment; g of ai/ha: A1.1 100; B1.1 5; C12 50
Description: as §1, §3, §2, §4

With `CP(=O)(O)CCC(N)C(=O)O` (centres unmarked) [(A1.1) GA, glufosinate-ammonium] as the molecule, how does the “Herbicidal efficacy % Pharbitis purpureum” value read?
The value was 45%.

How did the “Herbicidal efficacy % Pharbitis purpureum” value turn out when `COC(=O)c1nc(-c2ccc(Cl)c(OC)c2F)cc(N)c1Cl` [(B1.1), methyl 4-amino-3-chloro-6-(4-chloro-2-fluoro-3-methoxyphenyl)pyridine-2-carboxylate] was run?
Its value is 45%.

Which “Herbicidal efficacy % Pharbitis purpureum” value does the source give for `CCOCN(C(=O)CCl)c1c(C)cccc1CC` [(C12) acetochlor, acetochlor] here?
Its value is 10%.

Tested on: Setaria faberii
Test: Greenhouse trial: herbicidal efficacy, Setaria faberii
Format: in vivo
Conditions: Table 5; post-emergence, 1-3-leaf stage, scoring 14 days after treatment; g of ai/ha: A1.1 100; B1.1 5; C7 15; C13 2.5; C9 12.5 alone, 2.5 in combination
Description: as §1, §3, §2, §4

With `CP(=O)(O)CCC(N)C(=O)O` (centres unmarked) [(A1.1) GA, glufosinate-ammonium] as the molecule, how does the “Herbicidal efficacy % Setaria faberii” value read?
The value was 10%.

With `COC(=O)c1nc(-c2ccc(Cl)c(OC)c2F)cc(N)c1Cl` [(B1.1), methyl 4-amino-3-chloro-6-(4-chloro-2-fluoro-3-methoxyphenyl)pyridine-2-carboxylate] as the molecule, how does the “Herbicidal efficacy % Setaria faberii” value read?
Its value is 96%.

With `CS(=O)(=O)c1ccc(C(=O)C2C(=O)CCCC2=O)c([N+](=O)[O-])c1` [(C7) mesotrione, mesotrione] as the molecule, how does the “Herbicidal efficacy % Setaria faberii” value read?
The value was 0%.

How did the “Herbicidal efficacy % Setaria faberii” value turn out when `CS(=O)(=O)c1ccc(C(=O)C2C(=O)CCCC2=O)c(Cl)c1COCC(F)(F)F` [(C9) tembotrione, tembotrione] was run?
Its value is 10%.

For `Cc1c(C(=O)c2cnn(C)c2O)ccc(S(C)(=O)=O)c1C1=NOCC1` [(C13) topramezone, topramezone], which “Herbicidal efficacy % Setaria faberii” value is on record?
Its value is 10%.
